# Laboratory results from the NIST ThermoML archive (doi:10.1021/je800395m).
# “And” between values parts separate entries of the source, which are not always exact repeats. Equal values may be shown once. ± gives the expanded uncertainty stated by the source.
# Conditions: for Normal melting temperature: DTA
# [1] = 392 K, Crystal, Calculated from knudsen effusion weight loss
compound,measurement,setting,value
"c1ccc2cc3cc4ccccc4cc3cc2c1 [2,3-benzanthracene]",vapor or sublimation pressure,"399 K, Crystal 2",1.46e-05 ± 1.5e-06 kPa
same,vapor or sublimation pressure,"404.4 K, Crystal 2",2.1e-05 ± 2.2e-06 kPa
same,vapor or sublimation pressure,"405.6 K, Crystal 2",2.55e-05 ± 2.6e-06 kPa
same,vapor or sublimation pressure,"409.5 K, Crystal 2",3.39e-05 ± 3.5e-06 kPa
same,vapor or sublimation pressure,"410.6 K, Crystal 2",4.22e-05 ± 4.3e-06 kPa
same,vapor or sublimation pressure,"414.6 K, Crystal 2",5.42e-05 ± 5.5e-06 kPa
same,vapor or sublimation pressure,"415.8 K, Crystal 2",6.67e-05 ± 6.8e-06 kPa
same,vapor or sublimation pressure,"416.6 K, Crystal 2",6.39e-05 ± 6.5e-06 kPa
same,vapor or sublimation pressure,"418.6 K, Crystal 2",7.84e-05 ± 8e-06 kPa
same,vapor or sublimation pressure,"419.6 K, Crystal 2",8.46e-05 ± 8.8e-06 kPa
same,vapor or sublimation pressure,"420.8 K, Crystal 2",0.0001032 ± 1e-05 kPa
same,vapor or sublimation pressure,"424.7 K, Crystal 2",0.0001278 ± 1.3e-05 kPa
same,vapor or sublimation pressure,"430.1 K, Crystal 2",0.0002146 ± 2.2e-05 kPa
"CC(C)[C@@H](C)/C=C/[C@@H](C)[C@H]1CC[C@H]2C3=CC=C4C[C@@H](O)CC[C@]4(C)[C@H]3CC[C@]12C [(22E)-ergosta-5,7,22-trien-3β-ol]",vapor or sublimation pressure,"381.3 K, Crystal, Calculated from knudsen effusion weight loss",3.1e-06 ± 2e-07 kPa
same,vapor or sublimation pressure,"383.8 K, Crystal, Calculated from knudsen effusion weight loss",4.4e-06 ± 3e-07 kPa
same,vapor or sublimation pressure,"386.5 K, Crystal, Calculated from knudsen effusion weight loss",5.6e-06 ± 4e-07 kPa
same,vapor or sublimation pressure,"394.4 K, Crystal, Calculated from knudsen effusion weight loss",1.42e-05 ± 8e-07 kPa
same,vapor or sublimation pressure,"399.6 K, Crystal, Calculated from knudsen effusion weight loss",2.6e-05 ± 1.4e-06 kPa
same,vapor or sublimation pressure,"402.3 K, Crystal, Calculated from knudsen effusion weight loss",3.54e-05 ± 1.9e-06 kPa
same,vapor or sublimation pressure,"404.6 K, Crystal, Calculated from knudsen effusion weight loss",4.47e-05 ± 2.4e-06 kPa
same,vapor or sublimation pressure,"407.2 K, Crystal, Calculated from knudsen effusion weight loss",5.91e-05 ± 3.3e-06 kPa
same,vapor or sublimation pressure,"412.3 K, Crystal, Calculated from knudsen effusion weight loss",0.0001027 ± 5.4e-06 kPa
same,Normal melting temperature,Crystal,158 ± 1 °C
"CC[C@H](/C=C/[C@@H](C)[C@H]1CC[C@H]2[C@@H]3CC=C4C[C@@H](O)CC[C@]4(C)[C@H]3CC[C@]12C)C(C)C [(22E)-stigmasta-5,22-dien-3β-ol]",vapor or sublimation pressure,"390.9 K, Crystal, Calculated from knudsen effusion weight loss",3.9e-06 ± 2e-07 kPa
same,vapor or sublimation pressure,[1],4.6e-06 ± 3e-07 kPa
same,vapor or sublimation pressure,"393.5 K, Crystal, Calculated from knudsen effusion weight loss",5.6e-06 ± 3e-07 kPa
same,vapor or sublimation pressure,"396.1 K, Crystal, Calculated from knudsen effusion weight loss",8.2e-06 ± 5e-07 kPa
same,vapor or sublimation pressure,"397.2 K, Crystal, Calculated from knudsen effusion weight loss",9.4e-06 ± 5e-07 kPa
same,vapor or sublimation pressure,"398.7 K, Crystal, Calculated from knudsen effusion weight loss",1.15e-05 ± 7e-07 kPa
same,vapor or sublimation pressure,"401.2 K, Crystal, Calculated from knudsen effusion weight loss",1.61e-05 ± 9e-07 kPa
same,vapor or sublimation pressure,"403.9 K, Crystal, Calculated from knudsen effusion weight loss",2.2e-05 ± 1e-06 kPa
same,vapor or sublimation pressure,"406.3 K, Crystal, Calculated from knudsen effusion weight loss",2.96e-05 ± 1.7e-06 kPa
same,vapor or sublimation pressure,"408.9 K, Crystal, Calculated from knudsen effusion weight loss",4.11e-05 ± 2.3e-06 kPa
same,vapor or sublimation pressure,"411.5 K, Crystal, Calculated from knudsen effusion weight loss",5.38e-05 ± 3e-06 kPa
same,vapor or sublimation pressure,"414 K, Crystal, Calculated from knudsen effusion weight loss",7.23e-05 ± 4e-06 kPa
same,vapor or sublimation pressure,"416.6 K, Crystal, Calculated from knudsen effusion weight loss",9.54e-05 ± 5.1e-06 kPa
same,Normal melting temperature,Crystal,162 ± 1 °C
CC(C)CCC[C@@H](C)[C@H]1CC[C@H]2[C@@H]3CC=C4C[C@@H](O)CC[C@]4(C)[C@H]3CC[C@]12C [.DELTA.5-cholesten-3β-ol],vapor or sublimation pressure,"386.6 K, Crystal, Calculated from knudsen effusion weight loss",1.18e-05 ± 7e-07 kPa
same,vapor or sublimation pressure,[1],2.13e-05 ± 1.2e-06 kPa
same,vapor or sublimation pressure,"397.3 K, Crystal, Calculated from knudsen effusion weight loss",3.95e-05 ± 2.2e-06 kPa
same,vapor or sublimation pressure,"403.1 K, Crystal, Calculated from knudsen effusion weight loss",7.14e-05 ± 3.9e-06 kPa
same,vapor or sublimation pressure,"408.2 K, Crystal, Calculated from knudsen effusion weight loss",0.0001251 ± 6.8e-06 kPa
same,vapor or sublimation pressure,"413.8 K, Crystal, Calculated from knudsen effusion weight loss",0.0002146 ± 1.1e-05 kPa
same,Normal melting temperature,Crystal,148 ± 1 °C
c1ccc2cc3ccccc3cc2c1 [anthracene],vapor or sublimation pressure,"319.6 K, Crystal, Calculated from knudsen effusion weight loss",1.3e-05 ± 8e-07 kPa and 1.29e-05 ± 8e-07 kPa
same,vapor or sublimation pressure,"323.9 K, Crystal, Calculated from knudsen effusion weight loss",2.14e-05 ± 1.2e-06 kPa
same,vapor or sublimation pressure,"326.8 K, Crystal, Calculated from knudsen effusion weight loss",3.04e-05 ± 1.7e-06 kPa
same,vapor or sublimation pressure,"326.9 K, Crystal, Calculated from knudsen effusion weight loss",3e-05 ± 1.7e-06 kPa
same,vapor or sublimation pressure,"331.7 K, Crystal, Calculated from knudsen effusion weight loss",5.29e-05 ± 2.7e-06 kPa
same,vapor or sublimation pressure,"332.1 K, Crystal, Calculated from knudsen effusion weight loss",5.32e-05 ± 2.7e-06 kPa
same,vapor or sublimation pressure,"332.2 K, Crystal, Calculated from knudsen effusion weight loss",5.41e-05 ± 2.9e-06 kPa
same,vapor or sublimation pressure,"334 K, Crystal, Calculated from knudsen effusion weight loss",6.51e-05 ± 3.6e-06 kPa
same,vapor or sublimation pressure,"334.2 K, Crystal, Calculated from knudsen effusion weight loss",6.59e-05 ± 3.7e-06 kPa
same,vapor or sublimation pressure,"337 K, Crystal, Calculated from knudsen effusion weight loss",9.16e-05 ± 4.9e-06 kPa
same,vapor or sublimation pressure,"339.4 K, Crystal, Calculated from knudsen effusion weight loss",0.0001131 ± 6.1e-06 kPa
same,vapor or sublimation pressure,"342 K, Crystal, Calculated from knudsen effusion weight loss",0.0001487 ± 8.5e-06 kPa
same,vapor or sublimation pressure,"349.7 K, Crystal, Calculated from knudsen effusion weight loss",0.0003165 ± 1.7e-05 kPa and 0.0003121 ± 1.7e-05 kPa
same,vapor or sublimation pressure,"354.8 K, Crystal, Calculated from knudsen effusion weight loss",0.0005077 ± 2.7e-05 kPa
CC[C@H](CC[C@@H](C)[C@H]1CC[C@H]2[C@@H]3CC=C4C[C@@H](O)CC[C@]4(C)[C@H]3CC[C@]12C)C(C)C [β-sitosterol],vapor or sublimation pressure,"389.9 K, Crystal, Calculated from knudsen effusion weight loss",9.4e-06 ± 6e-07 kPa
same,vapor or sublimation pressure,"392.4 K, Crystal, Calculated from knudsen effusion weight loss",1.27e-05 ± 7e-07 kPa
same,vapor or sublimation pressure,"395.2 K, Crystal, Calculated from knudsen effusion weight loss",1.72e-05 ± 9e-07 kPa
same,vapor or sublimation pressure,"397.7 K, Crystal, Calculated from knudsen effusion weight loss",2.23e-05 ± 1.2e-06 kPa
same,vapor or sublimation pressure,"400.3 K, Crystal, Calculated from knudsen effusion weight loss",2.99e-05 ± 1.7e-06 kPa
same,vapor or sublimation pressure,"405.6 K, Crystal, Calculated from knudsen effusion weight loss",5.2e-05 ± 3e-06 kPa
same,vapor or sublimation pressure,"410.7 K, Crystal, Calculated from knudsen effusion weight loss",9.02e-05 ± 4.8e-06 kPa
same,Normal melting temperature,Crystal,138 ± 1 °C
